{"source": "patent US8236359B2", "about": "“Use of phytoecdysones in the preparation of a composition for acting on the metabolic syndrome” (Institut Biophytis SAS, priority 2007, dated 2012)", "key": {"male mice C57 BL/6 [1]": {"test_system": "male mice C57 BL/6", "test": "Effect of phytoecdysones on mice subjected to a fat (lard, inductor) diet for three weeks", "format": "in vivo, mice (Mus musculus line C57BI6)", "procedure": "A test is carried out for studying the effect of phytoecdysones on mice subjected to a fat diet for three weeks\nThe fat diet or inductor diet consists in supplying large amounts of fat matter in the form of lard. The mice selected for this study are male mice C57 BL/6, 6-weeks old at the beginning of this inductor diet. Such mice are a preferred study model for analyzing the impact of the quinoa extract enriched with phytoecdysones according to the invention on the physiological parameters of the metabolic syndrome.\nThe inductor diet is a diet enriched with lard.\n(§1) The 24 mice of each series have been subjected to a diet, such as detailed in the table 2, for three weeks and have been treated at the same time with the pure molecule, or a quinoa extract enriched up to 1.6% (2.24% the last treatment week for the control series) or 7% of 20-hydroxyecdysone (20E). The concentration of 20-hydroxyecdysone is adjusted to 40 mg per kg of food.\n(§2) While taking account of the amount of food ingested on average by the mice, the administered dose of 20E corresponds in the three treatments to 5 mg of 20E per kg of the body weight and per day. The food is supplied in excess, three times a week, for both diets and the three treatments. On average, 40 g of food are supplied for each cage and per day, i.e. 6.5 g of food for each mouse and per day.\n(§3) The table 2 below indicates in more detail the composition of the food diet to which the mice are subjected.\n(§4) At the time of the sacrifice, the weight of the mice (Bwt), as well as the weight of the liver, the epididymis adipose tissue (EAT) and the subcutaneous adipose tissue (SCAT) are measured.\n(§5) Cells of the epididymis adipose tissue are taken for carrying out a count and a morphological analysis."}, "male mice C57 BL/6 [2]": {"test_system": "male mice C57 BL/6", "test": "Effect of phytoecdysones on mice subjected to a normal control diet", "format": "in vivo, mice (Mus musculus line C57BI6)", "procedure": "At the same time, another test is carried out for studying the effect of these same phytoecdysones on mice which have not been subjected to a fat diet, which is considered as a normal control diet.\nas §1, §2, §3, §4, §5"}}, "data": [{"compound": "CC(C)(O)CC[C@@H](O)[C@](C)(O)[C@H]1CC[C@@]2(O)C3=CC(=O)[C@@H]4C[C@@H](O)[C@@H](O)C[C@]4(C)[C@H]3CC[C@]12C", "note": "[pure molecule, 20-hydroxyecdysone]", "values": [{"measurement": "mode of the distribution of adipocyte diameters", "setting": "male mice C57 BL/6 [1]; FIG. 5, lard control about 70", "result": 60, "unit": "µm"}, {"measurement": "maximum adipocyte diameter of the distribution", "setting": "male mice C57 BL/6 [1]; FIG. 5, lard control up to 110", "result": 90, "unit": "µm"}, {"measurement": "effect on adipocyte diameter", "setting": "male mice C57 BL/6 [1]; epididymis adipose tissue cells, FIG. 4", "result": "reduces the adipocyte sizes in a significant manner"}, {"measurement": "obesity / adiposity induced by hyperlipidical and hypercalorific diet (conclusion)", "setting": "male mice C57 BL/6 [1]; gonad and subcutaneous tissue", "result": "avoid a development of the an obesity"}, {"measurement": "decrease of the adiposity, gonad (epididymis) adipose tissue (% EAT)", "setting": "male mice C57 BL/6 [1]; three weeks, 5 mg 20E/kg/day, versus untreated lard-diet mice, FIG. 2", "result": 50, "unit": "%"}, {"measurement": "effect in non obese animals with a normal diet (conclusion)", "setting": "male mice C57 BL/6 [2]", "result": "no effect"}, {"measurement": "adiposity, gonad (epididymis) adipose tissue (% EAT)", "setting": "male mice C57 BL/6 [2]; three weeks, 5 mg 20E/kg/day, versus untreated mice, FIG. 2", "result": "does not modify the adiposity"}]}]}
